Target: Coagulation factor XI (Homo sapiens, UniProt P03951)
Assay: factor XIa inhibitor concentration-response – biochemical, hits from 1536-well screen, dose response (AID 846)
Settings: pH 7.4; 23 °C

Sequence of Coagulation factor XI (P03951 19-387 limits assumed): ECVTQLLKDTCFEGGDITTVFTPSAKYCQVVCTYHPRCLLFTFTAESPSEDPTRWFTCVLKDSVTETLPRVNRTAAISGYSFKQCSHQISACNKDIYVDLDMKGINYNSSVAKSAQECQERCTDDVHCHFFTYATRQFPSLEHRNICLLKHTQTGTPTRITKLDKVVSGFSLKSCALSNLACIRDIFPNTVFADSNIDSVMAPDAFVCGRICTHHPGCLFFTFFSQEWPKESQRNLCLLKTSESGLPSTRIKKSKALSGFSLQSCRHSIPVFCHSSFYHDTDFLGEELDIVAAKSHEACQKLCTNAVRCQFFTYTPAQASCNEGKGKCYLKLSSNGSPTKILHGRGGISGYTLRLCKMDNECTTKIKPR
Sequence of Coagulation factor XI (P03951 388-625 limits assumed): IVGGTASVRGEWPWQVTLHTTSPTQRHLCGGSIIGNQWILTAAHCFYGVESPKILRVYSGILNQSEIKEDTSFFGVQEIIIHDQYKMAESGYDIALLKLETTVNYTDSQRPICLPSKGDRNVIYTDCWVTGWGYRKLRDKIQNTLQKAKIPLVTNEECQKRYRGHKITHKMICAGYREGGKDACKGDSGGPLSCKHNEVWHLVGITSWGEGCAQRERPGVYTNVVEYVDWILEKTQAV

SMILES | IC50
Cc1onc(-c2ccccc2)c1C(=O)N(Cc1ccco1)Cc1cccs1 [MLS000771400] | > 50 µM
O=C(NN=Cc1ccccc1C(=O)O)c1ccccc1Br [MLS000774668] | > 50 µM
CC(=O)Nc1ccc(S(=O)(=O)NNC(=O)COc2ccc(Cl)cc2Cl)cc1 [MLS000777409] | > 50 µM
COc1ccccc1CC(=O)NCc1csc(-c2cccs2)n1 [MLS000859819] | > 50 µM
COc1ccc(CN(Cc2ccc(OC)cc2)C(=O)c2cccs2)cc1 [MLS000860276] | > 50 µM
Fc1ccc(Nc2ccc3ccccc3n2)c(F)c1 [MLS001004714] | > 50 µM
Cc1nn(CC(=O)c2ccc(Cl)s2)c(C)c1[N+](=O)[O-] [MLS001006606] | > 50 µM
COc1cc(C(=O)NCC(=O)OCn2nnc3ccccc3c2=O)cc(OC)c1OC [MLS001007360] | > 50 µM
CC1(C)C2CCC(C2)C1(C)/N=C1\OC(CCl)CS1 (stereo unspecified) [MLS001012164] | > 50 µM
CC1(C)[N-]c2ccc([N+](=O)[O-])c(N)c2[N+]1=O [MLS001012383] | > 50 µM
CN(C)c1ccc(C(=S)N2CCN(c3ccc([N+](=O)[O-])cc3)CC2)cc1 [MLS001033622] | > 50 µM
COc1cc(C=NNC(=O)c2ccc(CN3C(=O)c4cccc5cccc3c45)cc2)cc(OC)c1O [MLS001033788] | > 50 µM
CC(C)N(Cc1ccccc1)C(S)=NC1CCCCC1 [MLS001033857] | > 50 µM
CC1=NN(C(C#N)c2ccc([N+](=O)[O-])cc2)C(C)(C)C1 (stereo unspecified) [MLS001049177] | > 50 µM
CONC(=N)c1nonc1N [MLS001049218] | > 50 µM
O=C(Nc1ccc2c(c1)oc1ccccc12)N1CCOCC1 [Morpholine-4-carboxylic acid dibenzofuran-3-ylamide] | > 50 µM
Cc1ccc(NC2=NC3(CCCCC3)N=C(N)N2)c(C)c1 [N4-(2,4-dimethylphenyl)-1,3,5-triazaspiro[5.5]undeca-1,4-diene-2,4-diamine] | > 50 µM
COCC(=O)Nc1ccccc1-c1ccccc1 [N-2-biphenylyl-2-methoxyacetamide] | > 50 µM
CCc1cc2c(SCC(=O)N(C)C3CCS(=O)(=O)C3)ncnc2s1 (stereo unspecified) [N-(1,1-dioxothiolan-3-yl)-2-(6-ethylthieno[2,3-d]pyrimidin-4-yl)sulfanyl-N-methylacetamide] | > 50 µM
Cc1cc(NS(=O)(=O)c2ccc(N3C(=O)C4C5C=CC(C5)C4C3=O)cc2)nc(C)n1 (stereo unspecified) [N-(2,6-dimethyl-4-pyrimidinyl)-4-(3,5-dioxo-4-azatricyclo[5.2.1.0~2,6~]dec-8-en-4-yl)benzenesulfonamide] | > 50 µM

SMILES | IC50
Cc1ccc(NC(=S)NCCc2ccccc2)nc1 [N-(2-Phenethyl)-N -(2-(5-methylpyridyl))thiourea] | 5.5 µM
COc1ccc([N+](=O)[O-])cc1NCc1ccco1 [N-(2-furanylmethyl)-2-methoxy-5-nitroaniline] | > 50 µM
O=C(NCc1ccco1)C1CC(c2ccccc2C(F)(F)F)=NO1 (stereo unspecified) [N-(2-furanylmethyl)-3-[2-(trifluoromethyl)phenyl]-4,5-dihydroisoxazole-5-carboxamide] | > 50 µM
O=C(Nc1cc([N+](=O)[O-])ccc1N1CCOCC1)c1ccco1 [N-(2-morpholin-4-yl-5-nitro-phenyl)furan-2-carboxamide] | > 50 µM
Cc1cc(F)ccc1S(=O)(=O)Nc1ncnc2sc3c(c12)CCC3 [N-(7,8-dihydro-6H-cyclopenta[4,5]thieno[1,2-c]pyrimidin-1-yl)-4-fluoro-2-methylbenzenesulfonamide] | > 50 µM
COc1ccc2c(c1)-c1nc(NC(=O)c3cccs3)sc1CC2 [N-(8-methoxy-4,5-dihydrobenzo[e][1,3]benzothiazol-2-yl)-2-thiophenecarboxamide] | 41.3 µM
CNC(=S)N1CCC(NC(=O)c2ccco2)CC1 [N-[1-(methylcarbamothioyl)piperidin-4-yl]furan-2-carboxamide] | > 50 µM
O=C(NC1CCCC1)C(c1ccccn1)N(C(=O)c1csnn1)C1CC1 (stereo unspecified) [N-[2-(cyclopentylamino)-2-oxo-1-(2-pyridinyl)ethyl]-N-cyclopropyl-4-thiadiazolecarboxamide] | > 50 µM
COc1cccc(NC(C)(C)c2nnnn2-c2c(C)cccc2C)c1 [N-[2-[1-(2,6-dimethylphenyl)tetrazol-5-yl]propan-2-yl]-3-methoxyaniline] | > 50 µM
COc1ccc(C(=O)Nc2ccc(N3CCN(c4ccc(OC)cc4)CC3)c(C#N)c2)cc1 [N-[3-cyano-4-[4-(4-methoxyphenyl)piperazin-1-yl]phenyl]-4-methoxy-benzamide] | > 50 µM
CCOCCCNS(=O)(=O)c1ccc(NC(=O)c2ccc(OC)c([N+](=O)[O-])c2)cc1 [N-[4-(3-ethoxypropylsulfamoyl)phenyl]-4-methoxy-3-nitrobenzamide] | > 50 µM
Cn1nc(C(=O)Nc2nc(-c3ccc(F)cc3)cs2)ccc1=O [N-[4-(4-fluorophenyl)-1,3-thiazol-2-yl]-1-methyl-6-oxopyridazine-3-carboxamide] | > 50 µM
CC(C)c1csc(CN2CCCC(CCC(=O)NCc3ccccc3F)C2)n1 (stereo unspecified) [N-[(2-fluorophenyl)methyl]-3-[1-[(4-propan-2-yl-1,3-thiazol-2-yl)methyl]piperidin-3-yl]propanamide] | > 50 µM
O=C(NCc1ccc2c3c(cccc13)C(=O)N2)c1cccs1 [N-[(2-oxo-1H-benzo[cd]indol-6-yl)methyl]thiophene-2-carboxamide] | > 50 µM
COc1ccc(N(CC(=O)NCc2ccc(Cl)cc2)S(=O)(=O)c2ccccc2[N+](=O)[O-])c(OC)c1 [N-[(4-chlorophenyl)methyl]-2-(2,4-dimethoxy-N-(2-nitrophenyl)sulfonylanilino)acetamide] | > 50 µM
Cc1ccc(C(=O)NNC(=S)NC(=O)COc2ccccc2)cc1 [N-[[(4-methylbenzoyl)amino]carbamothioyl]-2-phenoxyacetamide] | 3 µM
COc1cc(C(=O)NC(=S)N(C)Cc2ccccc2)cc(OC)c1OC [N-[benzyl(methyl)carbamothioyl]-3,4,5-trimethoxybenzamide] | > 50 µM
CCCNC(=O)C1CC(c2ccc(C(F)(F)F)cc2)=NO1 (stereo unspecified) [N-propyl-3-[4-(trifluoromethyl)phenyl]-4,5-dihydro-1,2-oxazole-5-carboxamide] | 14.3 µM
NC[C@H](O)c1ccc(O)cc1 [SMR000058358] | > 50 µM

Further lines, results first:

IC50 | SMILES
6.2 µM | O=C(Oc1ccc2c(=O)c(Cl)coc2c1)c1ccncc1 [SMR000014947]
7.75 µM | COc1ccccc1/N=C/c1nc(-c2ccccc2)oc1OC(C)=O [SMR000039734]
> 50 µM | COC(=O)c1c(NC(=O)COC(=O)Cn2cnc3ccccc32)sc(C)c1C [SMR000062436]
21.6 µM | Cn1cccc1C(=O)Nc1nc(-c2ccccn2)cs1 [SMR000064459]
0.364 µM | O=C(Nc1nc(-c2ccc(Cl)s2)cs1)c1cccs1 [SMR000065041]
> 50 µM | C=CCNc1nc(NC(C)(C)CO)nc(OC)n1 [SMR000117555]
> 50 µM | Cc1cccc(CN2CCN(CC(=O)N3CCCC3)C2=O)c1 [SMR000130591]
> 50 µM | CCc1ccc(NC(=O)CCn2cccc2)cc1 [SMR000130982]
> 50 µM | COc1ccc(N2C(=O)C(Cl)=C(N3CCCC(C)C3)C2=O)cc1 (stereo unspecified) [SMR000142424]
> 50 µM | C=CCn1c(Cc2cccs2)nnc1SCC(=O)NCc1ccco1 [SMR000153108]
> 50 µM | COc1cccc(C=NNC(=O)c2[nH]c(C)c(C(=O)NN=Cc3cccc(OC)c3O)c2C)c1O [SMR000162187]
> 50 µM | CC(C)(C)C(=O)Nc1ccc(C(=O)NN=Cc2ccccc2OC(=O)c2ccccc2)cc1 [SMR000174811]
> 50 µM | C=CCNC(=S)N[N-][CH+]c1ccc(C)c([N+](=O)[O-])c1 [SMR000228955]
> 50 µM | O=C(Nc1nc(-c2ccccc2)cs1)c1ccc(S(=O)(=O)N2CCc3ccccc32)cc1 [SMR000235796]
> 50 µM | Cc1cccc(OCC(O)CN2CC3(C)CC2CC(C)(C)C3)c1 (stereo unspecified) [SMR000249047]
> 50 µM | COc1ccc(C=Nn2c(C)cc(C)cc2=O)cc1 [SMR000269659]
> 50 µM | Brc1cccc(CN=Nc2nnn[nH]2)c1 [SMR000279292]
> 50 µM | O=C1c2ccc(-c3ccc4c(c3)C(=O)N(CCO)C4=O)cc2C(=O)N1CCO [SMR000282940]
> 50 µM | COCCNCC(=O)Nc1nc(C)cs1 [SMR000287473]

IC50 | SMILES
> 50 µM | CCc1nnc(NC(=O)c2ccc(NC(=O)C(C)C)cc2)s1 [SMR000290444]
> 50 µM | Cc1ccc(CN2C(=O)C(=NNC(=S)Nc3ccccc3F)c3cc(S(=O)(=O)N4CCOCC4)ccc32)cc1 [SMR000314855]
> 50 µM | O=C(c1cc(Cl)nc2ccccc12)N1CCc2ccccc2C1 [SMR000347901]
> 50 µM | O=C(Cn1[nH]c(=O)c2ccccc2c1=O)Nc1cccc(S(=O)(=O)N2CCCCCC2)c1 [SMR000369234]
> 50 µM | COc1ccccc1NS(=O)(=O)c1ccc(O)c(C(=O)OCC(=O)c2ccc(Cl)cc2Cl)c1 [SMR000369457]
6.52 µM | COc1ccc(NCC(=O)Nc2cc(S(=O)(=O)N3CCOCC3)ccc2N2CCOCC2)c(OC)c1 [SMR000371196]
> 50 µM | CCOC(=O)c1sc2ncn(N=Cc3ccc(O)cc3)c(=O)c2c1C [SMR000371630]
> 50 µM | Cc1cccc(OCC(=O)NN=Cc2ccccc2C(=O)O)c1 [SMR000372421]
> 50 µM | COc1cc(C(=O)OCC(C)=O)ccc1OCc1c(C)noc1C [SMR000377658]
> 50 µM | C=C(C)CNC(=S)NN=C(C)c1cccc(NC(C)=O)c1 [SMR000384154]
> 50 µM | CC1=CC(=NNC(=S)Nc2cccnc2)CC(C)(C)C1 [SMR000385739]
14 µM | CCCCCCCc1c(O)nc(SCCN(C)C)[nH]c1=O [SMR000414668]
> 50 µM | COc1cc(C2SCC(=O)N2c2c(C)n(C)n(-c3ccccc3)c2=O)ccc1O (stereo unspecified) [SMR000414946]
> 50 µM | O=C(O)CCCC(=O)N1N=C(c2ccccc2)CC1c1cccs1 (stereo unspecified) [SMR000414955]
> 50 µM | Cc1cc(/C=C2\SC(=S)N(C)C2=O)c(C)n1-c1cccc(O)c1 [SMR000415846]
> 50 µM | O=[N+]([O-])c1ccc(OCCO)c(P(=O)(c2ccccc2)c2ccccc2)c1 [SMR000420001]
> 50 µM | CCC1CCC2(CC1)SCC(=O)N2c1ccccc1 (stereo unspecified) [SMR000425321]
> 50 µM | O=C1SCCC1NC(=O)C(c1ccccc1)c1ccccc1 (stereo unspecified) [SMR000425361]

Source: BindingDB's records for doi:10.7270/Q2H993J6 (Pcmd, 2008)
